The source of these data is the METLIN SMRT retention time set (Domingo-Almenara et al. 2019).

The data set can be described thus: gradient 5% acetonitrile 3 min, to 50% in 2 min, to 85% in 15 min, held 3 min, 100 µL/min. To be noted: column: Zorbax Extend-C18 2.1 x 50 mm; eluents: water / acetonitrile, 0.1% formic acid. A digest of the protocol:
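Pure standards were run in mixtures of ~100 molecules by HPLC coupled to a quadrupole time-of-flight mass spectrometer. The column was a Zorbax Extend-C18 (2.1 × 50 mm, 1.8 μm) at 100 μL/min, with water and acetonitrile each containing 0.1% formic acid, in positive and negative ionization mode. Dead and dwell volumes were 40 μL and 900 μL. Retention time was taken from computationally picked adduct peaks, each manually inspected, with data collected over 3 months.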
For the compound `CCOc1ccc(-c2nc(NC(=O)Cc3csc(C)n3)sc2C)cc1`, the RP-LC retention time was determined as 938 s.
For `COc1ccc(-c2nc(-c3cn(Cc4ccc(F)cc4)nn3)no2)cc1`, the RP-LC retention time amounted to 963 s.
Then `COC(=O)c1c(NCCN2CCCc3ccccc32)c2cc(F)ccc2[nH]c1=O`, with 952 s; and `CCc1ccc(S(=O)(=O)N2c3ccccc3CC2c2nnc(C3CCOCC3)o2)cc1` (stereo not given), with 948 s.
The result for `CCOC(=O)Cc1ccc(NC(=O)N2CCN(c3nc4ccccc4n3C)CC2)cc1` reads 656 s; that for `COCCNC(=O)C1CCCN(C(=O)c2[nH]c(C)cc2C)C1` (stereo not given), 644 s.
The compound `Cc1cc2nc(C)c(CCC(=O)O)c(C)n2n1` came in with an RP-LC retention time of 597 s.
In turn, `Cn1c(SCC(=O)c2ccccc2OC(F)F)nc2ccccc21` gave an RP-LC retention time of 808 s.
With `Cc1ccc(C)c(Cn2nc3ccc(S(=O)(=O)N4CCCC4)cn3c2=O)c1`, the RP-LC retention time was 915 s.
As for `COc1ccc(C)cc1NC(=O)c1nc(C2CCC2)oc1C`, the RP-LC retention time came out at 1290 s.
Then `CCN1C(=O)COc2ccc(-c3noc(-c4ccc(CS(=O)(=O)c5ccccc5)cc4)n3)cc21`, with 1060 s; and `Cc1cc(Cl)ccc1N1C(=O)CN(S(C)(=O)=O)CC1(C)C(=O)NCc1ccc(F)cc1` (stereo not given), with 888 s.
Then `NS(=O)(=O)c1ccc(CCNS(=O)(=O)c2cccc(-c3nc(-c4ccccc4)no3)c2)cc1`, with 952 s.
Then `O=C(NCc1ccc2c(c1)OCO2)C(=O)c1cccn1Cc1ccccc1`, with 980 s; and `O=C(Cc1nnc(-c2ccc3ncccc3c2)o1)NCc1ccc(F)cc1Cl`, with 752 s; and `Cc1cc(=O)n(CC(=O)Nc2ccc(Br)cc2)c(N2CCCC2)n1`, with 666 s.
In the case of `O=C(NCCOc1ccccc1)Nc1cccs1`, the RP-LC retention time was 755 s.
The result for `CCOc1ccc(N2CC(c3nc(-c4cccc(C)c4)no3)CC2=O)cc1` (stereo not given) reads 1050 s; that for `CN(CC#N)C(=O)c1nn(C)c2c1COc1ccccc1-2`, 834 s; that for `CC(=O)N1CCCN(C2=NS(=O)(=O)C(c3ccc(Cl)cc3)=C2C)CC1`, 718 s.
The result for `O=C(C1CCCN(c2ccncc2)C1)N1CCCCCC1` (stereo not given) reads 603 s; that for `O=S(=O)(c1cccs1)N1CCN(c2cnn3c(C4CC4)nnc3c2)CC1`, 683 s; that for `Cc1cccc(NC(=O)CSc2nnc(C)s2)c1`, 715 s.
Take `CC(C)C(=O)Nc1ccc2nc(N3CCN(c4cccc(Cl)c4)CC3)cc(C(=O)O)c2c1`: the RP-LC retention time was found to be 883 s.
The result for `O=C(Cc1nnc(-c2cnccn2)o1)Nc1ccc(Cl)cc1Cl` reads 753 s.
Then `CCOC(=O)C1CCCN(C(=O)C2CCN(S(=O)(=O)c3ccc4c(c3)sc(=O)n4C)CC2)C1` (stereo not given), with 825 s; and `CCn1cnc(S(=O)(=O)N2CCC(C(=O)N3CCN(c4cccc(Cl)c4)CC3)CC2)c1`, with 825 s; and `CSc1ccccc1NC(=O)Cn1cnc(-c2cccs2)cc1=O`, with 749 s.
`CCc1ccc(CNC(=O)CN2CCc3ccccc3C2C(=O)N2CCCC2)cc1` (stereo not given) returned an RP-LC retention time of 860 s.
The result for `CCN1C(=O)Cc2ccccc2C1C(=O)NCc1ccc2c(c1)OCO2` (stereo not given) reads 727 s; that for `C=CCN(C)C(=O)c1cnn2c3c(cnc12)CCCCCC3`, 827 s.
Compound `O=C(c1ccccc1F)N1CCC2(C1)C(=O)Nc1ccccc12` (stereo not given) had an RP-LC retention time of 662 s.
The compound `CC1CCCN(CC2CCN(S(=O)(=O)Cc3ccc(Cl)cc3)CC2)C1` (stereo not given) showed an RP-LC retention time of 690 s.
`CC(Oc1ccc2c(c1)OCO2)C(=O)NCCn1nc(-c2cccs2)ccc1=O` (stereo not given): the RP-LC retention time is 712 s.
Then `O=C(NCc1ccc(F)c(Cl)c1)C1CCN(c2ccc(SCc3ccccc3)nn2)CC1`, with 839 s; and `CCC(CC)COC(=O)c1[nH]c2c(c1C)C(=O)CC(c1ccc(OC)c(OC)c1)C2` (stereo not given), with 1140 s; and `CCc1cccc(C)c1NC(=O)CSc1ccc(N2CCCC(C(=O)NC3CC3)C2)nn1` (stereo not given), with 662 s.
`COc1ccc(NS(=O)(=O)c2cn(CC(C)C)c3ncccc23)cc1`: the RP-LC retention time is 896 s.
The result for `CN1C(=O)[C@H]2CN(Cc3cccc4[nH]ccc34)C[C@H]2C1=O` reads 552 s; that for `CCS(=O)(=O)Nc1ccc(C2(C(=O)NCc3ccc(C)cc3)CCC2)cc1`, 863 s.
In turn, `Cn1nc(C(=O)N2CC(n3cc(C(=O)NCC4CC4)nn3)C2)c2ccccc21` had an RP-LC retention time of 734 s.
The compound `C[C@@H](Oc1cc(-n2cnc3ccc(CN4CCN(C)CC4)cc32)sc1C(N)=O)c1ccccc1C(F)(F)F` showed an RP-LC retention time of 690 s.
Consider `Cc1cc(=O)n(CC(=O)Nc2cc(C)on2)c(N2CCOCC2)n1`, for which the RP-LC retention time stood at 592 s.
`CN1CCC(NC(=O)c2n[nH]c3c2CN(C(=O)c2cc(F)cc(F)c2)CC3)CC1` gave an RP-LC retention time of 597 s.
Then `COc1ccc(-c2c(C)noc2NC(C)=O)cc1S(=O)(=O)Nc1cccc(C#N)c1`, with 708 s; and `CN(C)c1ncccc1C(=O)NC1CCCCC1`, with 588 s; and `Cc1ccc(S(=O)(=O)NCCc2cn(CC(C)C)c3ncccc23)cc1`, with 921 s.
Regarding `O=C(Nc1ccc(F)cc1)Oc1ccc[nH]c1=O`, the RP-LC retention time is 684 s.
As for `Cc1ccc(N2CCC(NC(=O)Cc3ccccc3C)C2=O)cc1` (stereo not given), the RP-LC retention time is 869 s.
On to `CNC(=O)c1ccc(-c2nc3cc(NS(=O)(=O)c4ccc(F)c(Cl)c4)ccc3n2C)cc1`, for which the RP-LC retention time turned out to be 674 s.
The compound `CC(=O)Nc1ccc(-n2cnc(C(=O)NCc3ccc(F)cc3)c2)nc1` came in with an RP-LC retention time of 681 s.
The result for `CC(C)NC(=O)C1CCCN(c2nc3ncn(CC(=O)NCc4ccccc4)c(=O)c3s2)C1` (stereo not given) reads 672 s; that for `CN(C)c1ccc(O)c2c1C[C@H]1C[C@H]3[C@H](N(C)C)C(=O)C(C(N)=O)=C(O)[C@@]3(O)C(=O)C1=C2O`, 596 s; that for `O=C(c1cccn1Cc1noc(-c2ccc(Cl)cc2)n1)N1CCCCCC1`, 1160 s.
In turn, `O=C(NCCCn1ccnc1)C(=O)Nc1c2c(nn1-c1cccc(Cl)c1)CSC2` displayed an RP-LC retention time of 568 s.
Then `COCCn1ncc(N2CCCC(CC(=O)O)C2)cc1=O` (stereo not given), with 613 s.
The result for `Cn1ccc2cc(C(=O)NC3CCCC3)ccc21` reads 806 s; that for `Cc1cc(C(=O)Nc2cc(-c3ccco3)nn2CCO)no1`, 725 s.
Then `CCOc1ccc(-n2c(=O)c3sccc3n(Cc3nc(-c4ccccc4OCC)no3)c2=O)cc1`, with 1020 s; and `Cc1ccc(NS(=O)(=O)c2cc3c4c(c2)CCC(=O)N4CCC3)cc1C`, with 880 s.
